Tests used:
rice = experiment: Test C flooded paddy test; assay type: in vivo, Oryza sativa; details: Flood
Outline: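 Compound was added to standing water 3 cm above soil, flood maintained, and plants held in a greenhouse before visual scoring against controls at 13 to 15 days.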

wild oat = experiment: Test C pre-/postemergence test; assay type: in vivo, Avena fatua
Outline: (§1)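 Test chemicals were formulated with surfactant in a non-phytotoxic solvent and sprayed both on freshly planted seeds (preemergence) and on 1- to 4-leaf plants of 2–18 cm (postemergence). Flooded-paddy pots received compound directly into 3 cm of standing water, maintained for the test.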

johnsongrass = experiment: Test C pre-/postemergence test; assay type: in vivo, Sorghum halepense
Outline: as §1

Italian ryegrass = experiment: Test C pre-/postemergence test; assay type: in vivo, Lolium multiflorum
Outline: as §1

bermudagrass = experiment: Test C pre-/postemergence test; assay type: in vivo, Cynodon dactylon
Outline: as §1

yellow nutsedge = experiment: Test C pre-/postemergence test; assay type: in vivo, Cyperus esculentus
Outline: as §1

cocklebur = experiment: Test C pre-/postemergence test; assay type: in vivo, Xanthium strumarium; details: for Cocklebur plant response rating: preemergence, scale 0 (no effect) to 100 (complete control)
Outline: as §1

morningglory [1] = experiment: Test C pre-/postemergence test; assay type: in vivo, Ipomoea coccinea
Outline: as §1

kochia = experiment: Test C pre-/postemergence test; assay type: in vivo, Kochia scoparia
Outline: as §1

giant foxtail = experiment: Test C pre-/postemergence test; assay type: in vivo, Setaria faberii
Outline: as §1

redroot pigweed = experiment: Test A pre-/postemergence greenhouse test; assay type: in vivo, Amaranthus retroflexus; details: for Plant response rating, Pigweed: 0 to 100 scale where 0 is no effect and 100 is complete control; for Pigweed plant response rating: 0 to 100 scale
Outline: (§2)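 Untreated controls served as the reference for visual injury ratings taken about ten days after spraying. The non-phytotoxic solvent/surfactant formulation was applied preemergence to seeded loam and sand and postemergence to plants two to ten cm high.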

wheat = experiment: Test C pre-/postemergence test; assay type: in vivo, Triticum aestivum
Outline: as §1

[2] = tested on: common (oilseed) sunflower; experiment: Test C pre-/postemergence test; assay type: in vivo, Helianthus annuus
Outline: as §1

morningglory [3] = experiment: Test A pre-/postemergence greenhouse test; assay type: in vivo, Ipomoea spp.; details: for Plant response rating, Morningglory: 0 to 100 scale where 0 is no effect and 100 is complete control; for Morningglory plant response rating: 0 to 100 scale
Outline: as §2

corn [4] = experiment: Test C pre-/postemergence test; assay type: in vivo, Zea mays
Outline: as §1

corn [5] = experiment: Test A pre-/postemergence greenhouse test; assay type: in vivo, Zea mays; details: for Plant response rating, Corn: 0 to 100 scale where 0 is no effect and 100 is complete control; for Corn plant response rating: 0 to 100 scale
Outline: as §2

eastern black nightshade = experiment: Test C pre-/postemergence test; assay type: in vivo, Solanum ptycanthum
Outline: as §1

[6] = 62 g ai/ha, Preemergence, scale 0 to 100
[7] = 125 g ai/ha, preemergence, scale 0 (no effect) to 100 (complete control)
[8] = Preemergence, 31 g ai/ha, scale 0 to 100 (0 no effect, 100 complete control)
[9] = preemergence, 250 g ai/ha, scale 0 (no effect) to 100 (complete control)
[10] = Postemergence, 500 g ai/ha, 0 is no effect, 100 is complete control
[11] = Preemergence, 125 g ai/ha, 0 no effect, 100 complete control

CC(Oc1c(C[S+]([O-])c2cccc[n+]2[O-])c(C(F)(F)F)nn1C)C(F)(F)F (centres unmarked) [Compound 77] was tested, and the “Plant response rating, Rice” value (rice; 62 g ai/ha, scale 0 to 100 (0 no effect, 100 complete control)) was 30, the “Plant response rating, Rice” value (rice; 250 g ai/ha, scale 0 to 100, 0 no effect, 100 complete control, 13 to 15 days) was 70 and the “Oat, Wild plant response rating” value (wild oat; [6]) was 70. For the same molecule, the “Oat, Wild plant response rating” value (wild oat; [7]) was 90, the “Plant response rating, Oat, Wild” value (wild oat; [8]) was 35 and the “Oat, Wild plant response rating” value (wild oat; [9]) was 95. The “Johnsongrass plant response rating” value (johnsongrass; [6]) was 100, the “Johnsongrass plant response rating” value (johnsongrass; [7]) was 100 and the “Plant response rating, Johnsongrass” value (johnsongrass; [8]) was 60. For the same molecule, the “Johnsongrass plant response rating” value (johnsongrass; [9]) was 100, the “Ryegrass, Italian plant response rating” value (Italian ryegrass; [6]) was 98 and the “Ryegrass, Italian plant response rating” value (Italian ryegrass; [7]) was 100. For the same molecule, the “Plant response rating, Ryegrass, Italian” value (Italian ryegrass; [8]) was 80, the “Ryegrass, Italian plant response rating” value (Italian ryegrass; [9]) was 100 and the “Bermudagrass plant response rating” value (bermudagrass; 62 g ai/ha, Preemergence, scale 0 to 100 (0 no effect, 100 complete control)) was 100. For the same molecule, the “Bermudagrass plant response rating” value (bermudagrass; [7]) was 100, the “Plant response rating, Bermudagrass” value (bermudagrass; [8]) was 100 and the “Bermudagrass plant response rating” value (bermudagrass; [9]) was 100. The “Nutsedge, Yellow plant response rating” value (yellow nutsedge; [6]) was 100, the “Nutsedge, Yellow plant response rating” value (yellow nutsedge; [7]) was 100 and the “Plant response rating, Nutsedge, Yellow” value (yellow nutsedge; [8]) was 50. The “Nutsedge, Yellow plant response rating” value (yellow nutsedge; [9]) was 100, the “Cocklebur plant response rating” value (cocklebur; 125 g ai/ha) was 0 and the “Plant response rating, Cocklebur” value (cocklebur; [8]) was 0. The “Cocklebur plant response rating” value (cocklebur; 250 g ai/ha) was 0, the “Morningglory plant response rating” value (morningglory [1]; [6]) was 65 and the “Morningglory plant response rating” value (morningglory [1]; [7]) was 100. For the same molecule, the “Plant response rating, Morningglory” value (morningglory [1]; [8]) was 60, the “Morningglory plant response rating” value (morningglory [1]; [9]) was 100 and the “Kochia plant response rating” value (kochia; [6]) was 100. The “Kochia plant response rating” value (kochia; [7]) was 100, the “Plant response rating, Kochia” value (kochia; [8]) was 100 and the “Kochia plant response rating” value (kochia; [9]) was 100. For the same molecule, the “Foxtail, Giant plant response rating” value (giant foxtail; [6]) was 100, the “Foxtail, Giant plant response rating” value (giant foxtail; [7]) was 100 and the “Plant response rating, Foxtail, Giant” value (giant foxtail; [8]) was 80. The “Foxtail, Giant plant response rating” value (giant foxtail; [9]) was 100, the “Plant response rating, Pigweed” value (redroot pigweed; Postemergence, 125 g ai/ha) was 70 and the “Pigweed plant response rating” value (redroot pigweed; [10]) was 80. For the same molecule, the “Pigweed plant response rating” value (redroot pigweed; [11]) was 70, the “Plant response rating, Pigweed” value (redroot pigweed; Preemergence, 500 g ai/ha) was 100 and the “Wheat plant response rating” value (wheat; [6]) was 40. For the same molecule, the “Wheat plant response rating” value (wheat; [7]) was 80, the “Plant response rating, Wheat” value (wheat; [8]) was 20 and the “Wheat plant response rating” value (wheat; [9]) was 95. The “Sunflower plant response rating” value [2, 6] was 0, the “Sunflower plant response rating” value [2, 7] was 80 and the “Plant response rating, Sunflower” value [2, 8] was 0. For the same molecule, the “Sunflower plant response rating” value [2, 9] was 98, the “Plant response rating, Morningglory” value (morningglory [3]; Postemergence, 125 g ai/ha) was 70 and the “Morningglory plant response rating” value (morningglory [3]; [10]) was 90. For the same molecule, the “Morningglory plant response rating” value (morningglory [3]; [11]) was 70, the “Plant response rating, Morningglory” value (morningglory [3]; Preemergence, 500 g ai/ha) was 100 and the “Corn plant response rating” value (corn [4]; [6]) was 95. For the same molecule, the “Corn plant response rating” value (corn [4]; [7]) was 100, the “Plant response rating, Corn” value (corn [4]; [8]) was 40 and the “Corn plant response rating” value (corn [4]; [9]) was 100. The “Plant response rating, Corn” value (corn [5]; Postemergence, 125 g ai/ha) was 50, the “Corn plant response rating” value (corn [5]; [10]) was 60 and the “Corn plant response rating” value (corn [5]; [11]) was 50. The “Plant response rating, Corn” value (corn [5]; Preemergence, 500 g ai/ha) was 80, the “Nightshade plant response rating” value (eastern black nightshade; [6]) was 100 and the “Nightshade plant response rating” value (eastern black nightshade; [7]) was 100. For the same molecule, the “Plant response rating, Nightshade” value (eastern black nightshade; [8]) was 100 and the “Nightshade plant response rating” value (eastern black nightshade; [9]) was 100.

Source: patent US20100298141A1, “SUBSTITUTED PYRIDINE N-OXIDE HERBICIDES” (E. I. DU PONT DE NEMOURS AND COMPANY, priority 2007, published 2010)
